# Earlier results, collected in PMC12309854, “Evidencing the role of a conserved polar signaling channel in the activation mechanism of the μ-opioid receptor” (Computational and Structural Biotechnology Journal, 2025).
# Molecular target: MOP
# Parameters: method as in PMID 31527522
# Settings: value given in the method for the Cheng-Prusoff calculation, source not stated; protocol ref 58; read-out: Kd of the radioligand
# Method: Binding assays were carried out following a previously published protocol, at 25 °C for a duration of 60 min using a 50 mM Tris–HCl buffer (pH 7.4) in glass tubes. […] Non-specific binding was evaluated u ...
substance,measurement,value
DAMGO [[^3H]DAMGO],Kd,0.5 nM
